Measured values published in patent US8946453B2, “Chemical compounds” (Syngenta Participations AG, priority 2011, dated 2015).

What was measured:
[1] = tested on: Myzus persicae (Green Peach Aphid); assay: Activity against Myzus persicae, mixed population, feeding/residual contact, preventive (sunflower leaf discs); conditions: foliar, 144 h, read-out: activity
[2] = tested on: Myzus persicae (Green Peach Aphid); assay: Activity against Myzus persicae, mixed population, systemic/feeding, curative (pea seedling roots in test solution); conditions: 144 h, read-out: activity
[3] = tested on: Myzus persicae (Green Peach Aphid); assay: Activity against Myzus persicae on cabbage plants, feeding/residual contact, spray chamber; conditions: in Brassica oleracea, 144 h, read-out: activity against Myzus persicae

| Structure (SMILES) | melting point | pest or weed control at 400 ppm [1] | pest or weed control at 400 ppm [2] | pest or weed control at 200 ppm [3] |
| --- | --- | --- | --- | --- |
| Cc1ccc(C)c(C2C(=O)NC(CC3CCOCC3)C2=O)c1 (stereo not drawn) [Compound P2.4] | 114 to 116 °C | – | – | – |
| Cc1cc(C)c(C2C(=O)NC(CC3CCOCC3)C2=O)c(C)c1 (stereo not drawn) [Compound P2.1] | – | > 80% | – | – |
| Cc1cc(C)c(C2=C(OC(=O)C(C)(C)C)C(CC3CCOCC3)OC2=O)c(C)c1 (stereo not drawn) [Compound P1.16] | – | > 80% | – | – |
| CCOC(=O)OC1=C(c2c(C)cc(Cl)cc2C)C(=O)NC1CC1CCN(OC)CC1 (stereo not drawn) [Compound P1.19] | – | – | > 80% | – |
| CCOC(=O)OC1=C(c2cc(C)ccc2C)C(=O)NC1CC1CCS(=O)(=NC(=O)C(F)(F)F)CC1 (single isomer, unassigned) [Compound P1.6, carbonic acid 4-(2,5-dimethyl-phenyl)-5-oxo-2-[1-oxo-1-(2,2,2-trifluoro-acetylimino)-hexahydro-1λ^6-thiopyran-4-ylmethyl]-2,5-dihydro-1H-pyrrol-3-yl ester ethyl ester] | 91 to 93 °C | – | – | – |
| CON1CCC(C2OC(=O)C(c3c(C)cc(C)cc3C)C2=O)CC1 (stereo not drawn) [Compound P2.17] | – | > 80% | > 80% | ≥ 80% |
| CON1CCC(CC2NC(=O)C(c3cc(C)ccc3C)=C2O)CC1 (stereo not drawn) [Compound P2.2, 3-(2,5-dimethyl-phenyl)-4-hydroxy-5-(1-methoxy-piperidin-4-ylmethyl)-1,5-dihydro-pyrrol-2-one] | – | > 80% | – | – |
| CCOC(=O)OC1=C(c2c(C)cc(C)cc2C)C(=O)NC1CC1CCN(OC)CC1 (stereo not drawn) [Compound P1.10] | – | > 80% | > 80% | ≥ 80% |
| CCOC(=O)OC1=C(c2c(C)cc(C)cc2C)C(=O)N(C)C1CC1CCN(OC)CC1 (stereo not drawn) [Compound P1.13] | – | > 80% | – | ≥ 80% |
| Cc1ccc(C)c(C2C(=O)NC(CC3CCS(=O)(=NC#N)CC3)C2=O)c1 (stereo not drawn) [Compound P2.9] | 189 to 191 °C | – | – | – |
| CCOC(=O)OC1=C(c2cc(C)ccc2C)C(=O)NC1CC1CCS(=O)(=NC(=O)C(F)(F)F)CC1 (single isomer, unassigned) [Compound P1.7, carbonic acid 4-(2,5-dimethyl-phenyl)-5-oxo-2-[1-oxo-1-(2,2,2-trifluoro-acetylimino)-hexahydro-1λ^6-thiopyran-4-ylmethyl]-2,5-dihydro-1H-pyrrol-3-yl ester ethyl ester] | 87 to 89 °C | – | – | – |
| Cc1cc(C)c(C2C(=O)NC(CC3CCN(C)CC3)C2=O)c(C)c1 (stereo not drawn) [Compound P2.11] | 133 to 136 °C | – | – | – |
| CCOC(=O)OC1=C(c2c(C)cc(C)cc2C)C(=O)NC1C1CCN(OC)CC1 (stereo not drawn) [Compound P1.12, carbonic acid ethyl ester 2-(1-methoxy-piperidin-4-yl)-5-oxo-4-(2,4,6-trimethyl-phenyl)-2,5-dihydro-1H-pyrrol-3-yl ester] | – | > 80% | > 80% | ≥ 80% |
| CCOC(=O)OC1=C(c2c(C)cc(Cl)cc2C)C(=O)NC1C1CCN(OC)CC1 (stereo not drawn) [Compound P1.18] | – | > 80% | – | – |
| CCOC(=O)OC1=C(c2cc(C)ccc2C)C(=O)NC1CC1CCS(=O)(=O)CC1 (stereo not drawn) [Compound P1.3] | 97 to 101 °C | – | – | – |
| CCOC(=O)OC1=C(c2cc(C)ccc2C)C(=O)NC1CC1CCSCC1 (stereo not drawn) [Compound P1.2, carbonic acid 4-(2,5-dimethyl-phenyl)-5-oxo-2-(tetrahydro-thiopyran-4-ylmethyl)-2,5-dihydro-1H-pyrrol-3-yl ester ethyl ester] | 75 to 76 °C | – | – | – |

| Structure (SMILES) | melting point | pest or weed control at 400 ppm [1] | pest or weed control at 400 ppm [2] | pest or weed control at 200 ppm [3] |
| --- | --- | --- | --- | --- |
| CCOC(=O)OC1=C(c2cc(C)ccc2C)C(=O)NC1CC1CCN(OC)CC1 (stereo not drawn) [Compound P1.1, carbonic acid 4-(2,5-dimethyl-phenyl)-2-(1-methoxy-piperidin-4-ylmethyl)-5-oxo-2,5-dihydro-1H-pyrrol-3-yl ester ethyl ester] | – | > 80% | – | ≥ 80% |
| CCOC(=O)OC1=C(c2cc(C)ccc2C)C(=O)NC1CC1CCS(=NC(=O)C(F)(F)F)CC1 (stereo not drawn) [Compound P1.8] | 190 to 192 °C | – | – | – |
| CON1CCC(C2NC(=O)C(c3c(C)cc(Cl)cc3C)C2=O)CC1 (stereo not drawn) [Compound P2.21] | – | > 80% | > 80% | ≥ 80% |
| CCOC(=O)OC1=C(c2cc(C)ccc2C)C(=O)NC1CC1CCS(=O)(=NC#N)CC1 (stereo not drawn) [Compound P1.5] | – | > 80% | – | – |
| CCOC(=O)OC1=C(c2cc(C)ccc2C)C(=O)NC1CC1CCS(=NC#N)CC1 (stereo not drawn) [Compound P1.9, carbonic acid 2-(1-cyanoimino-hexahydro-1λ^4-thiopyran-4-ylmethyl)-4-(2,5-dimethyl-phenyl)-5-oxo-2,5-dihydro-1H-pyrrol-3-yl ester ethyl ester] | 103 to 105 °C | – | – | – |
| CON1CCC(CC2NC(=O)C(c3c(C)cc(Cl)cc3C)C2=O)CC1 (stereo not drawn) [Compound P2.22] | – | > 80% | – | ≥ 80% |
| Cc1ccc(C)c(C2=C(O)C(CC3CCS(=O)(=O)CC3)NC2=O)c1 (stereo not drawn) [Compound P2.6, 3-(2,5-dimethyl-phenyl)-5-(1,1-dioxo-hexahydro-1λ^6-thiopyran-4-ylmethyl)-4-hydroxy-1,5-dihydro-pyrrol-2-one] | 244 to 246 °C | – | – | – |
| CON1CCC(CC2OC(=O)C(c3c(C)cc(C)cc3C)C2=O)CC1 (stereo not drawn) [Compound P2.16] | – | > 80% | > 80% | ≥ 80% |
| CON1CCC(CC2NC(=O)C(c3c(C)cc(C)cc3C)C2=O)CC1 (stereo not drawn) [Compound P2.13] | – | > 80% | > 80% | ≥ 80% |
| CON1CCC(C2NC(=O)C(c3cc(C)ccc3C)C2=O)CC1 (stereo not drawn) [Compound P2.14] | – | – | – | ≥ 80% |
| CCOC(=O)OC1=C(c2c(C)cc(C)cc2C)C(=O)OC1CC1CCN(OC)CC1 (stereo not drawn) [Compound P1.14] | – | – | > 80% | ≥ 80% |
| CCOC(=O)OC1=C(c2cc(C)ccc2C)C(=O)NC1CC1CC[S+]([O-])CC1 (stereo not drawn) [Compound P1.4, carbonic acid 4-(2,5-dimethyl-phenyl)-5-oxo-2-(1-oxo-hexahydro-1λ^4-thiopyran-4-ylmethyl)-2,5-dihydro-1H-pyrrol-3-yl ester ethyl ester] | 103 to 106 °C | – | – | – |
| CON1CCC(C2NC(=O)C(c3c(C)cc(C)cc3C)=C2O)CC1 (stereo not drawn) [Compound P2.12, 4-hydroxy-5-(1-methoxy-piperidin-4-yl)-3-(2,4,6-trimethyl-phenyl)-1,5-dihydro-pyrrol-2-one] | 206 to 209 °C | – | – | – |
| CCOC(=O)OC1=C(c2c(C)cc(C)cc2C)C(=O)OC1C1CCN(OC)CC1 (stereo not drawn) [Compound P1.15] | – | > 80% | > 80% | ≥ 80% |
| Cc1ccc(C)c(C2C(=O)NC(CC3CCN(C)CC3)C2=O)c1 (stereo not drawn) [Compound P2.10] | 142 to 145 °C | – | – | – |
| CCOC(=O)OC1=C(c2cc(C)ccc2C)C(=O)NC1C1CCN(OC)CC1 (stereo not drawn) [Compound P1.11] | – | – | > 80% | ≥ 80% |
